Laboratory results as given in ChEMBL document CHEMBL1134524, “Utilization of an intramolecular hydrogen bond to increase the CNS penetration of an NK(1) receptor antagonist” (J Med Chem, 2001).

Tested on: Meriones unguiculatus
Experiment: Minimal effective dose to antagonize the foot tapping response when administered subcutaneously (0.1-10 mg/kg) in gerbil
Details: sc, read-out: MED

Work on C[C@H](NC(=O)[C@](Cc1c[nH]c2ccccc12)(CN(C)C)NC(=O)OCc1cc2ccccc2o1)c1ccccc1 yielded a minimal effective dose of 1 mg/kg.

Target: Substance-P receptor (Homo sapiens, UniProt P25103)
Experiment: Inhibition of specific binding at tachykinin receptor 1
Details: not given

Sequence of Substance-P receptor (P25103 whole entry): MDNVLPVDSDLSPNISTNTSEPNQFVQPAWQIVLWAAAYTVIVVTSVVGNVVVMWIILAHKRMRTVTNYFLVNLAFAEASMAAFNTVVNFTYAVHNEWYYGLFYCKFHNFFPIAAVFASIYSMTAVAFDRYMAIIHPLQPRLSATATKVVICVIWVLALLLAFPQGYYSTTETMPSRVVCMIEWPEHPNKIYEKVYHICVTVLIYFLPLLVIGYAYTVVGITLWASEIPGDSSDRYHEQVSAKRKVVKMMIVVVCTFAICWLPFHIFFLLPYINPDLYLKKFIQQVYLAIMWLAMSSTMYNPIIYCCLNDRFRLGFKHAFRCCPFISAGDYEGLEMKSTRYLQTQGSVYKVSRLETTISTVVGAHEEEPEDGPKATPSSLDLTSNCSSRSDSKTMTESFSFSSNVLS

In order of rising IC50:
1. C[C@H](NC(=O)[C@](Cc1c[nH]c2ccccc12)(CN(C)C)NC(=O)OCc1cc2ccccc2o1)c1ccccc1  0.46 nM
2. COC[C@](Cc1c[nH]c2ccccc12)(NC(=O)OCc1cc2ccccc2o1)C(=O)N[C@@H](C)c1ccccc1  0.7 nM
3. C[C@H](NC(=O)[C@@H](Cc1c[nH]c2ccccc12)NC(=O)OCc1cc2ccccc2o1)c1ccccc1  0.73 nM
4. CCC[C@](Cc1c[nH]c2ccccc12)(NC(=O)OCc1cc2ccccc2o1)C(=O)N[C@@H](C)c1ccccc1  0.85 nM
5. CC[C@](Cc1c[nH]c2ccccc12)(NC(=O)OCc1cc2ccccc2o1)C(=O)N[C@@H](C)c1ccccc1  0.96 nM
6. CC(C)C[C@](Cc1c[nH]c2ccccc12)(NC(=O)OCc1cc2ccccc2o1)C(=O)N[C@@H](C)c1ccccc1  3.79 nM
